Test results published in publication PMC11610669, “A Spectroscopic Study on the Amyloid‐β Interaction with Clicked Peptide‐Porphyrin Conjugates: a Vision Toward the Detection of Aβ Peptides in Aqueous Solution” (Chembiochem, 2024).

Assays:
[1] = CD control: β-sheet propensity of the conjugates alone; type: physicochemical; details: 10 mM phosphate buffer pH 7.4, room temperature, up to 120 h
Method: (§1) The UV‐Vis spectra of porphyrin‐peptide conjugates (5 μM) were recorded in the presence of an equimolar ration of Aβ42 monomers at 0, 24, 48 and 120 h (Figure 2S). […] Therefore, the interaction of the peptide‐porphyrin conjugates with Aβ was further studied using CD spectroscopy. The Aβ42 aggregation process was monitored either in the absence or in the presence of an equimolar amount of the conjugated peptides. A series of CD control experiments were preventively carried out to assess the propensity of the porphyrin‐peptide conjugates to adopt a β‐sheet conformation. The corresponding CD curves are shown in the supplementary material (Figure 3S). […] We then evaluated the ability of the porphyrin‐peptide conjugates to affect the Aβ42’s aggregation process. This was accomplished by running a series of CD experiments on the binary systems in the same experimental conditions as the control CD measurements. A 5 μM Aβ42 sample was used as a positive control of the aggregation process (Figure 3, panel a). In this case, the curve profiles indicate that at 0 h, Aβ42 is predominantly in the random coil conformation, as evidenced by the negative ellipticity around 200 nm. […] The typical dichroic profile characterized by a negative ellipticity at λ=222 nm and a positive band at λ=200 is indicative of this event (Figure 3, panel a).
(§2) Spectra were recorded on a J‐810 spectrometer (Jasco, Japan) under a constant flow of N2 at room temperature. The CD measurements were performed in the wavelength regions (190–260 nm, 195–350 nm and 350–500 nm) using a 1 cm path length quartz cell. All aggregation kinetics were monitored up to 120 hours. The CD spectra were recorded for Aβ42 (5 μM and 20 μM) monomer in the absence or in the presence of porphyrin‐peptide conjugates (5 μM and 20 μM for the 1 : 1 molar ratios). Monomerized samples of Aβ42 (5 μM and 20 μM) were solubilized in 50 μL of NaOH 20 mM (2,5 %) and after were diluted with 1950 μL of 10 mM phosphate buffer at pH 7.4 pure or containing the solubilized conjugates.

Aβ42 [2] = molecular target: T1, Aβ42 (Homo sapiens, UniProt P05067); test: UV-Vis of conjugates with equimolar Aβ42; type: biochemical; details: 5 μM conjugate, equimolar Aβ42, 10 mM phosphate buffer pH 7.4, 0, 24, 48 and 120 h
T1 sequence (P05067 672-713 limits assumed): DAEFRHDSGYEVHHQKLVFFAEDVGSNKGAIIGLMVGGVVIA
Method: as §1
Spectra were recorded on a Jasco V‐670 Spectrophotometer at room temperature. All measurements were performed in the 300–650 nm wavelength region, in a 10 mM phosphate buffer solution at pH 7.4 using a 1 cm path length quartz cell. The spectra of all the peptide‐porphyrin conjugates, either in the absence or in the presence of equimolar Aβ42, were acquired at 5 μM. In some cases, the same sample solution was used to run the CD spectra. The final concentrations of Aβ42 and peptide conjugates were 5 μM (1 : 1 molar ratio).

Aβ42 [3] = molecular target: T1, Aβ42; test: bis-Ans fluorescence anti-fibrillogenic assay; type: biochemical; details: Aβ42 20 μM, 1:1, 60 μM Bis-Ans solution, phosphate buffer pH 7.4, 37 °C, 65 h, ex/em 385/510 nm, triplicate
Text: We also carried out fluorescence assays to evaluate the anti‐fibrillogenic ability of the porphyrin‐peptide conjugates. We used the bis‐Ans (4,4’‐Dianilino‐1,1’‐binaphtyl‐5,5’disulphonic acid) as a chromophore instead of the typical Th−T (Thioflavin‐T), to avoid any potential interference that might occur between the porphyrin and Th−T, in both the excitation and emission wavelength regions. The bis‐Ans probe is sensitive to Aβ fibril formation, and it specifically binds to solvent‐exposed hydrophobic surfaces leading to an increase in its fluorescence emission maximum at 510 nm, in our case.[47] The bis‐Ans fluorescence kinetics were recorded with Aβ42 (20 μM) alone or in the presence of the porphyrin‐peptide conjugates at a 1 : 1 molar ratio. The kinetic profiles of the porphyrin‐peptide conjugates in the absence of Aβ42 were also acquired for comparison (Figure 4S). […] The obtained fluorescence intensities were compared with the values obtained for Aβ42 alone.
Bis‐Ans fluorescence kinetics were measured on a Flash Thermo Varioskan spectrofluorometer with excitation and emission at 385 and 510 nm, respectively. Aβ42, alone or in the presence of the porphyrin‐peptide conjugates in a 1 : 1 molar ratio, was dissolved in 10 mM aq NaOH (30 μL). […] Readings were taken every 10 min, after weak shaking for 10 s. The fluorescence intensity was monitored for 65 h. […]

Aβ8–20 = test: CD of conjugate with Aβ8–20 fragment; type: binding
Method: To better visualize how the induced signal increases as Aβ42 adopts the β‐sheet conformation, a comparative graph displaying the absolute value of the CD intensities at the maximum absorption wavelength for each derivative, either in the presence or absence of Aβ42 over the same time interval, is reported in the SI (Figure 7S). […] (Figure 8S panel a). […] We assume that the conjugate Zn‐Ph‐Pep conjugate could similarly interact with the Aβ8–20 fragment.
as §2

## COC(=O)[C@H](Cc1cn(CCCC[C@H](NC(=O)CNC(C)=O)C(=O)N2CCC[C@H]2C(=O)NCC(=O)N[C@@H](CCCCN)C(=O)N[C@@H](CC(C)C)C(=O)N[C@H](C(=O)N[C@@H](Cc2ccccc2)C(=O)N[C@@H](Cc2ccccc2)C(N)=O)C(C)C)nn1)NC(=O)c1ccc(-c2c3nc(c(-c4cc[n+](C)cc4)c4ccc([nH]4)c(-c4cc[n+](C)cc4)c4nc(c(-c5cc[n+](C)cc5)c5ccc2[nH]5)C=C4)C=C3)cc1 [Zn‐Ph‐Pep]
[1]
  propensity to adopt β-sheet conformation (conjugate alone): being faster in this process
Aβ42 [2]
  UV-Vis spectral change in presence of Aβ42: may suggest a rapid formation of aggregated species
Aβ42 [3]
  effect on Aβ42 fibril formation (bis-Ans fluorescence): might support or even accelerate Aβ42’s fibril formation
Aβ8–20; Far-UV CD
  conformation of Aβ8–20/conjugate mixture: significant amount of random coil conformation
Aβ8–20; same experimental conditions as with Aβ42
  induced CD signal in visible region with Aβ8–20: no induced CD signal is clearly detectable
